Where no end group is shown, it is not given here.
biological target: T1, DQ8 protein (HLA-DQ8: DQA1*03:01/DQB1*03:02) (Homo sapiens, UniProt P01909+P01920, A209T/A45G/C70Q/D89A/DUP78-78/E183D/E77G/F237L/G63E/H199R/I129T/K197E/L178F/L74F/L98V/Q57E/Q76R/S185I/S97I/T217I/T49S/V73L/Y58L); assay: Peptide binding competition; settings: not given
T1 construct: made in house; host or cells: insect cells (Drosophila S2 is named only for the biotinylated tetramer preparation)
Protocol: Recombinant DQ8 protein was produced as previously described. Briefly, soluble DQ8 was purified from insect cell culture supernatants by affinity chromatography and dialyzed against citric/phosphate storage buffer, pH 5.4. For the preparation of HLA class II tetramers, DQ8 protein was in vivo biotinylated in Drosophila S2 cells prior to harvest and dialyzed into citric/phosphate buffer. The biotinylated monomer was loaded with 0.2 mg/ml of peptide by incubating at 37°C for 72 h in the presence of 0.2 mg/ml n-Dodecyl-β-maltoside and 1 mM Pefabloc SC (Sigma–Aldrich, St. Louis, MO). Peptide loaded monomers were subsequently conjugated into tetramers using R-PE streptavidin (Biosource International, Camarillo, CA) at a molar ratio of 8∶1.
Peptide binding curves were simulated by non-linear regression with Prism software (Version 5, GraphPad Software Inc.) using a sigmoidal dose–response curve.

| Molecule | IC50 [nM] |
| --- | --- |
| TAKAMEQMAGSSEQAAEAME [H1MP185–204, reference compound] | 1400 |
| CSCC[C@H](NC(=O)[C@H](CC(=O)O)NC(=O)[C@H](CC(C)C)NC(=O)CNC(=O)[C@@H](NC(=O)[C@H](CO)NC(=O)[C@H](CC(C)C)NC(=O)[C@H](CCC(N)=O)NC(=O)[C@H](CC(N)=O)NC(=O)[C@H](Cc1ccccc1)NC(=O)[C@H](Cc1ccc(O)cc1)NC(=O)[C@H](CCCNC(=N)N)NC(=O)[C@@H]1CCCN1)[C@@H](C)O)C(=O)N[C@H](C(=O)NCC(=O)O)C(C)C [GAD65 176–190] | > 50000 |
| TYEIAPVFVLLEYVT [GAD65 206–220] | 1500 |

same assay, conditions: competition with 0.04 µM biotinylated GAD65_250–266 index peptide in wells coated with recombinant DQ8 protein; europium-streptavidin, time resolved fluorometer; sigmoidal dose-response fit; read-out: IC50 (binding to DQ8)

| Molecule | IC50 [nM] |
| --- | --- |
| FQQDKHYDLSYDTGD [GAD65 427–441] | > 50000 |
| AKGTTGFEAHVDKCL [GAD65 461–475] | > 50000 |
| YVVKSFDRSTKVIDFHYPNE [GAD65 121–140] | 1600 |
| YIPPSLRTLEDNEE [GAD65 508–521] | > 50000 |
